Assay results from ChEMBL document CHEMBL4831508, “Anti-inflammatory Cassane-Type Diterpenoids from the Seed Kernels of Caesalpinia sinensis” (J Nat Prod, 2021).

Assays:
RAW264.7 [1] = assay: Antiinflammatory activity in mouse RAW264.7 cells assessed as inhibition of LPS-induced NO production preincubated for 3 hrs followed by LPS-stimulation and measured after 24 hrs by Griess reagent based assay; assay type: functional, cell-based
RAW264.7 [2] = assay: Cytotoxicity against mouse RAW264.7 cells assessed as cell viability measured after 24 hrs by CCK8 assay; assay type: cell-based; conditions: raw264.7, 24 h
RAW264.7 [3] = assay: Antiinflammatory activity in mouse RAW264.7 cells assessed as inhibition of LPS-induced iNOSs protein expression preincubated for 3 hrs followed by LPS-stimulation and measured after 24 hrs by Western blot analysis; assay type: functional, cell-based; conditions: dose 3-30 µM
RAW264.7 [4] = assay: Antiinflammatory activity in mouse RAW264.7 cells assessed as inhibition of LPS-induced iNOS enzyme activity preincubated for 3 hrs followed by LPS-stimulation and measured after 24 hrs by fluorescence plate reader assay; assay type: functional, cell-based; conditions: dose 3-30 µM

| SMILES | IC50 (RAW264.7 [1]) [µM] | Activity (RAW264.7 [2]) | inhibition (RAW264.7 [3]) | inhibition (RAW264.7 [4]) |
| --- | --- | --- | --- | --- |
| C[C@@H]1C[C@H]2[C@@H]3CCC4=CC(=O)C=C[C@]4(C)[C@@]3(F)[C@@H](O)C[C@]2(C)[C@@]1(O)C(=O)CO [DEXAMETHASONE] | 0.58 | Non-Toxic | – | – |
| CO[C@@]12C[C@H]3[C@@H](C[C@@H](OC(C)=O)[C@H]4C(C)(C)CCC[C@]34C)[C@@H](C)C1=CC(=O)O2 | > 50 | Non-Toxic | – | – |
| CC(=O)O[C@@H]1C[C@H]2[C@@H](C)C3=CC(=O)OC3=C[C@@H]2[C@@]2(C)CCCC(C)(C)[C@H]12 | > 50 | Non-Toxic | – | – |
| CO[C@@]12C[C@H]3[C@@H](C[C@@H](O)[C@H]4C(C)(C)CCC[C@]34C)[C@@H](C)C1=CC(=O)O2 | 29.2 | Non-Toxic | – | – |
| CO[C@@]12C[C@H]3[C@@H](CC[C@H]4C(C)(C)CCC[C@]34C)[C@@H](C)C1=CC(=O)O2 | > 50 | Non-Toxic | – | – |
| CC(=O)O[C@@H]1C[C@@H]2[C@H](C=C3NC(=O)C=C3[C@]2(C)O)[C@@]2(C)CCCC(C)(C)[C@H]12 | 11.2 | Non-Toxic | – | – |
| C[C@H]1C2=CC(=O)N(CCO)[C@@H]2C[C@H]2[C@H]1C[C@@H](O)[C@H]1C(C)(C)CCC[C@]21C | 16.4 | Non-Toxic | – | – |
| CO[C@@]12C[C@H]3[C@@H](C[C@@H](O)[C@H]4[C@](C)(CO)CCC[C@]34C)[C@@H](C)C1=CC(=O)O2 | > 50 | Non-Toxic | – | – |
| C[C@H]1C2=CC(=O)O[C@]2(O)C[C@H]2[C@H]1C[C@@H](O)[C@H]1C(C)(C)CCC[C@]21C | 21.5 | Non-Toxic | – | – |
| CC(=O)O[C@@H]1C[C@@H]2[C@H](C=C3NC(=O)C=C3[C@@]2(C)O)[C@@]2(C)CCCC(C)(C)[C@H]12 | 9.8 | Non-Toxic | – | – |
| C[C@H]1C2=CC(=O)OC2=C[C@H]2[C@H]1C[C@@H](O)[C@H]1[C@](C)(CO)CCC[C@]21C | 45.8 | Non-Toxic | – | – |
| CC(=O)O[C@@H]1CC(C)(C)[C@@H]2CC[C@H]3[C@@H](C)C4=CC(=O)O[C@@H]4C[C@@H]3[C@@]2(C)C1 | > 50 | Non-Toxic | – | – |
| CC(=O)O[C@H]1CC[C@]2(C)[C@H]3C[C@H]4OC(=O)C=C4[C@H](C)[C@@H]3CC[C@H]2C1(C)C | 49.8 | Non-Toxic | – | – |
| CC(=O)O[C@@H]1C[C@H]2[C@@H](C)C3=CC(=O)O[C@@H]3C[C@@H]2[C@@]2(C)CCCC(C)(C)[C@H]12 | > 50 | Non-Toxic | – | – |
| C[C@H]1C2=CC(=O)OC2=C[C@H]2[C@H]1C[C@@H](O)[C@H]1C(C)(C)CCC[C@]21C | 34.4 | Non-Toxic | – | – |
| C[C@H]1C2=CC(=O)O[C@@H]2C[C@H]2[C@H]1C[C@@H](O)[C@H]1[C@@](C)(CO)CCC[C@]21C | > 50 | Non-Toxic | – | – |
| C[C@H]1C2=CC(=O)O[C@@H]2C[C@H]2[C@H]1C[C@@H](O)[C@H]1C(C)(C)CCC[C@]21C | 40.3 | Non-Toxic | – | – |
| C[C@@H]1[C@@H]2C[C@@H](O)[C@H]3[C@](C)(CO)CCC[C@]3(C)[C@H]2C=C2NC(=O)C[C@@H]21 | 21 | Non-Toxic | – | – |
| C[C@H]1C2=CC(=O)NC2=C[C@H]2[C@H]1C[C@@H](O)[C@H]1C(C)(C)CCC[C@]21C | 8.2 | Non-Toxic | Dose-Dependent Effect | Dose-Dependent Effect |
